Laboratory results from the NIST ThermoML archive (doi:10.1016/j.jct.2013.10.034).
± gives the expanded uncertainty stated by the source.

Experiment: excess molar enthalpy (molar enthalpy of mixing); xn = mol fraction of the nth substance listed
Conditions: 298.15 K, 100 kPa, Liquid, Calvet calorimetry

CCCC[N+]1(C)CCCCC1.N#C[N-]C#N [1-butyl-1-methylpiperidinium dicyanamide] + O
Conditions | excess molar enthalpy [kcal/mol]
x1 = 0.0639 | -0.0355 ± 0.000574
x1 = 0.0706 | -0.0403 ± 0.000621
x1 = 0.0846 | -0.0509 ± 0.000741
x1 = 0.101 | -0.0634 ± 0.000908
x1 = 0.1186 | -0.0769 ± 0.00105
x1 = 0.1379 | -0.0917 ± 0.00124
x1 = 0.1607 | -0.109 ± 0.00143
x1 = 0.1873 | -0.127 ± 0.00167
x1 = 0.2173 | -0.145 ± 0.00189
x1 = 0.249 | -0.16 ± 0.00208
x1 = 0.2797 | -0.172 ± 0.0022
x1 = 0.3103 | -0.179 ± 0.00229
x1 = 0.3414 | -0.183 ± 0.00234
x1 = 0.371 | -0.185 ± 0.00237
x1 = 0.4062 | -0.184 ± 0.00237
x1 = 0.4376 | -0.181 ± 0.00232
x1 = 0.4741 | -0.176 ± 0.00227
x1 = 0.5173 | -0.167 ± 0.00215
x1 = 0.5418 | -0.162 ± 0.00208
x1 = 0.5687 | -0.155 ± 0.00198
x1 = 0.5984 | -0.146 ± 0.00189
x1 = 0.6314 | -0.136 ± 0.00177
x1 = 0.6683 | -0.124 ± 0.00163
x1 = 0.6951 | -0.115 ± 0.00153
x1 = 0.7241 | -0.105 ± 0.00139
x1 = 0.7557 | -0.0942 ± 0.00127
x1 = 0.7902 | -0.0816 ± 0.0011
x1 = 0.8081 | -0.0749 ± 0.00103
x1 = 0.8268 | -0.0677 ± 0.000932
x1 = 0.8465 | -0.0603 ± 0.00086
x1 = 0.8671 | -0.0529 ± 0.000765
x1 = 0.8887 | -0.0446 ± 0.000669
x1 = 0.9114 | -0.0354 ± 0.00055
x1 = 0.9354 | -0.0256 ± 0.000454
x1 = 0.9606 | -0.0152 ± 0.000335
x1 = 0.9872 | -0.00537 ± 0.000239

CCCC[N+]1(C)CCCC1.N#CN=C=[N-] [1-butyl-1-methylpyrrolidinium dicyanamide] + O
Conditions | excess molar enthalpy [kcal/mol]
x1 = 0.0674 | -0.0479 ± 0.000717
x1 = 0.0744 | -0.0542 ± 0.000789
x1 = 0.0892 | -0.0681 ± 0.000956
x1 = 0.1064 | -0.0843 ± 0.00115
x1 = 0.1248 | -0.102 ± 0.00136
x1 = 0.145 | -0.121 ± 0.0016
x1 = 0.1688 | -0.142 ± 0.00184
x1 = 0.1964 | -0.164 ± 0.00213
x1 = 0.2275 | -0.185 ± 0.00237
x1 = 0.2604 | -0.203 ± 0.00263
x1 = 0.2921 | -0.215 ± 0.00263
x1 = 0.3236 | -0.223 ± 0.00287
x1 = 0.3554 | -0.227 ± 0.00287
x1 = 0.3857 | -0.228 ± 0.00287
x1 = 0.4217 | -0.225 ± 0.00287
x1 = 0.4535 | -0.22 ± 0.00287
x1 = 0.4906 | -0.212 ± 0.00263
x1 = 0.5342 | -0.2 ± 0.00263
x1 = 0.5589 | -0.192 ± 0.00239
x1 = 0.5859 | -0.183 ± 0.00234
x1 = 0.6157 | -0.172 ± 0.0022
x1 = 0.6486 | -0.159 ± 0.00206
x1 = 0.6853 | -0.144 ± 0.00186
x1 = 0.7119 | -0.132 ± 0.00172
x1 = 0.7406 | -0.119 ± 0.00158
x1 = 0.7718 | -0.106 ± 0.00141
x1 = 0.8057 | -0.0907 ± 0.00122
x1 = 0.8233 | -0.0828 ± 0.00112
x1 = 0.8417 | -0.0752 ± 0.00103
x1 = 0.8609 | -0.0662 ± 0.000932
x1 = 0.881 | -0.0564 ± 0.000813
x1 = 0.9021 | -0.046 ± 0.000693
x1 = 0.9243 | -0.0352 ± 0.00055
x1 = 0.9475 | -0.0238 ± 0.00043
x1 = 0.9719 | -0.0113 ± 0.000287
x1 = 0.9976 | -0.000599 ± 0.000215
